This note sets out measurements from patent US20250312469A1 (CANGET BIOTEKPHARMA, priority 2024, published 2025).

Series [1] is classed as physicochemical. The conditions noted are these: solid state of powder.
Experimental: Laboratory XRPD patterns from the samples will be collected at 25° C. The diffraction data were collected over the angular range of 2θ=3°−40° with a step size of 2θ=0.02° and accounting time of 0.12 s/step.
The target in series [2] is T1, UbE2T (Homo sapiens, UniProt Q9NPD8).
T1 sequence (Q9NPD8 1-197): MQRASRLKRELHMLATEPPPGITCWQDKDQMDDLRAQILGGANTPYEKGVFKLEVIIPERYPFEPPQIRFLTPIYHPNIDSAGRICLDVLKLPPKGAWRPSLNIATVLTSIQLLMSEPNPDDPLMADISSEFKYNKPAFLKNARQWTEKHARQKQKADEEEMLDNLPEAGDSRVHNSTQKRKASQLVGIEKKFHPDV
Nature of the series: ProtoArray protein microarray probed with 3H-FL118. The conditions noted are these: 3H-FL118 0.5 μM. It is filed as binding. On the set-up: purchased Invitrogen ProtoArray Human Protein Microarray v5.0. As for the experimental part:
(§1) The flask was then immersed in silicone oil bath at 180° C.-190° C. for 6 hours. The tritium gas was removed. The reaction mixture was dissolved in 1 mL of DMSO and back-exchanged 10× with 50% ethanol. Injected directly to CapCeLL PAK C-18 column (4.6×250 mm), mobile phase 30% CH3CN, 0.1% TFA, flow 1 mL/min, U.V. =200 nm, r.t. =40 min. After purification, total activity was 5 mCi (solid) with a specificity of 5.6 Ci/mmol at a radiochemical purity of >97% for ^3H-FL118. […] The flask was then immersed in silicone oil bath at 190° C. for 24 h. The tritium gas was removed. The reaction mixture was dissolved in 1 mL of DMSO and back-exchanged 10× with 50% ethanol and injected directly to CapCeLL Pak C-18 column (4.6×250 mm), mobile phase 30% CH3CN, 0.1% TFA, […], U.V. =200 nm, r.t. =40 min. After purification total activity was 5 mCi (solid) with a specificity of 16.5 Ci/mmol at a radiochemical purity of ≥81% for ^3H-FL118.
(§2) Use of ^3H-FL118 as a radioactive probe to search FL118-binding proteins through screening of human protein microarray (ProtoArray R with 9,400 human proteins, Invitrogen): The study process includes the following steps.
(§3) 1. Blocking the ProtoArray: (i) Immediately place the mailer containing the Human Protein Microarray v5.0 at 4° C. upon removal from storage at −20° C. and equilibrate the mailer at 4° C. for at least 15 minutes prior to use. (ii) Place Human Protein Microarrays with the barcode facing up in the bottom of a 4-chamber incubation tray such that the barcode end of the microarray is near the tray end containing an indented numeral. […] Avoid pipetting buffer directly onto the array surface. (iv) Incubate the tray for 1 hour at 4° C. on a shaker set at 50 rpm (circular shaking). (v) After incubation, remove Protein Microarrays from FL118 Assay Buffer. To remove array from the 4-chamber incubation tray, insert the tip of forceps into the indented numeral end and gently pry the array upward. Using a gloved hand, pick up the microarray by holding the array by its edges only. Tap to remove excess liquid from slide surface. (vi) Proceed immediately to Probing the Array.
(§4) 2. Probing the ProtoArray: (i) Place each ProtoArray horizontally in a separate sterile 50 mL conical tube with about ⅓ of the array extended outside of the tube. The barcoded end of the array should protrude from the tube (face up). (ii) For each ProtoArray, add 100 μL of probing mixture including ^3H-FL118 (final concentration of ^3H-FL118 at 0.1 μM and 0.5 μM, respectively on different ProtoArray) and the positional mapping reagent ^3H-estradiol and pipet the mixture gently onto the surface of the ProtoArray. (iii) Gently place a coverslip over the surface of the ProtoArray using forceps to avoid capturing bubbles. […]

Series [3] concerns the target T2, USP2a (Homo sapiens, UniProt O75604).
T2 sequence (O75604 1-605): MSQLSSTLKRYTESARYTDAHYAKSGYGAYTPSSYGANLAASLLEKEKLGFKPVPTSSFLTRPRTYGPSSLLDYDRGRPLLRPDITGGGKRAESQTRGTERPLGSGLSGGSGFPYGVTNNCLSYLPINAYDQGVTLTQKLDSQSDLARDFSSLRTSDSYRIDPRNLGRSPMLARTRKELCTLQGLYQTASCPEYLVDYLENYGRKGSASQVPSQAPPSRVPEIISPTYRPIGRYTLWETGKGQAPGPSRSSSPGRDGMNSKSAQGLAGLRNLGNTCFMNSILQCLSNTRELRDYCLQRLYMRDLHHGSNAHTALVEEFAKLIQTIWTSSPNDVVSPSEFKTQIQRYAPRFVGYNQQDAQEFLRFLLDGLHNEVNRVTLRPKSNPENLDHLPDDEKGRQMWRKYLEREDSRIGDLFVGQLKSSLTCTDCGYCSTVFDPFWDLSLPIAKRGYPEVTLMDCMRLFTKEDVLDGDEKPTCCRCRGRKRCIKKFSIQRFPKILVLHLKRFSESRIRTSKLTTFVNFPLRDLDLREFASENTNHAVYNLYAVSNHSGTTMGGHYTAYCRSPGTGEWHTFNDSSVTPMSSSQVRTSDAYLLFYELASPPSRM
Nature of the series: ProtoArray protein microarray probed with 3H-FL118. It is filed as binding. On the set-up: purchased Invitrogen ProtoArray Human Protein Microarray v5.0. To be noted: 3H-FL118 0.5 μM. As to the method:
as §1, §2, §3, §4

Take `CCC1(O)C(=O)OCc2c1cc1n(c2=O)Cc2cc3cc4c(cc3nc2-1)OCO4` (centres unmarked) [FL118]: the XRPD result in series [1] was “Weak crystal”. For the same compound, the Signal used is reported as 1812 3H counts per min in series [2] and 1959 3H counts per min in series [3]. Further, the figures for the Z-Score in series [2] and in series [3] were 3.2 and 3.7, respectively.
